What was measured:
Type in all cases: cell-based, human
GDF15 mRNA [1] = assay: qRT-PCR of GDF15 expression in drug-treated LN-229 cells
Protocol: (§1) Quantitative RT-PCR: Total RNA was isolated using the miRVana miRNA extraction kit (Ambion, Austin, Tex., USA). RNA was reverse transcribed using the High Capacity cDNA Reverse Transcription kit for mRNAs or TaqMan assays for microRNAs (Applied Biosystems, Carlsbad, Calif.). Quantitative real-time PCR was performed in duplicate using a Roche LightCycler 480 Real-Time PCR System (Indianapolis, Ind., USA). Each sample was normalized using GAPDH or RNU6B control (ΔCt) and relative quantification of gene expression was calculated using the comparative Ct (2^−ΔΔCt) method, as described in (Eletto et al., (2008) J. Cell. Physiol. 216: 764-770; Pacifici et al., (2013) J. Cell. Physiol. 228: 1070-1075; Rom et al., (2010) FASEB J. 24: 2292-2300 incorporated herein by reference in their entireties). For the clinical samples relative quantification was represented as 1/ΔCt to maintain real differences in Ct values between samples.
(§2) To further analyze the effects of fenofibrate on this gene, the human glioblastoma cell lines, LN-229 and U87MG were exposed to 50 μM fenofibrate and monitored the expression of GDF15 at 24 and 48 h time points. […] Following the treatment, total RNA was extracted and subjected to quantitative real-time PCR (qRT-PCR) using GDF15-specific and GAPDH-specific primers. The results in FIG. 6A show a 60- and 35-fold up-regulation of GDF15 gene expression in the two cell lines.

miR-3189-3p = assay: qRT-PCR of miR-3189-3p expression in drug-treated LN-229 cells; settings: for miR-3189-3p relative expression compared to untreated cells: LN-229, 48 h (FIG. 6E)
Protocol: as §1

miR-3189-5p = assay: qRT-PCR of miR-3189-5p expression in fenofibrate-treated LN-229 and U87MG cells; settings: fenofibrate treatment, 48 h
Protocol: as §1

GDF15 [2] = assay: Western blot of GDF15 protein in fenofibrate-treated LN-229 cells; settings: LN-229, fenofibrate treatment
Protocol: (§3) Western Blot Analysis: Cells were collected by gently scraping in the presence of PBS (Gibco, Life Technologies), followed by centrifugation and disruption of the cell pellet in lysis buffer (50 mM HEPES, pH 7.5, 150 mM NaCl, 1.5 mM MgCl2, 1 mM EGTA, pH 8.4, 10% glycerol, 1% Triton X-100, 1 mM PMSF, 1 mM sodium orthovanadate (NA3VO4), Phosphatase and Protease Inhibitor Cocktails (Sigma). Whole-cell lysates (30 to 70 μg) were separated on a 4-15% SDS-PAGE gel (Bio-Rad, Hercules, Calif.). GDF15 and E2F-1 antibodies were purchased from Cell Signaling Technology (Beverly, Mass.). The antibody to detect p63RhoGEF was obtained from GeneTex (Irvine, Calif.). GDF15 antibody was purchased from R&D Systems (Minneapolis, Minn.), and anti-GRB2 was from BD Transduction Laboratories (San Jose, Calif.). SF3B2 and 14-3-3ζ antibodies were obtained from Santa Cruz Biotechnology.

GDF15 mRNA [3] = assay: qRT-PCR of GDF15 expression in fenofibrate-treated U87MG cells; settings: 50 μM, 24 and 48 h time points
Protocol: as §1
as §2, with “The results in FIG. 6A show a 60- and 35-fold up-regulation of GDF15 gene expression in the two cell lines.” left out

Ago2 immunocomplexes = assay: RNA-binding protein immunoprecipitation (RIP) with Ago2 antibody; settings: extracts from FF-treated LN-229 cells
Protocol: RNA-Binding Protein Immunoprecipitation (RIP): RIP assay was performed using Argonaute 2 (Ago2) antibody from Millipore (RIPAb+Ago2 RIP). This kit included negative control mouse IgG antibody and control primers specific for human FOS, which were utilized for the optimization of Ago2-IP in the cellular model. The RIP Ago-IP was performed essentially as previously described (Curtale et al., (2013) Proc. Nat. Acad. Sci. U.S.A. 110: 11499-11504). In brief, 10×10^6 LN-229 cells were used for Ago2-IP and for the IgG isotype control; 2×10^6 cells were used for the extraction of total RNA and for total protein lysates. The cell monolayer was washed twice with cold PBS, and lysed in 500 μl of Lysis Buffer (150 mM KCl, 25 mM Tris-HCl pH 7.4, 5 mM EDTA, 0.5% NP40, 5 mM DTT) supplemented with 10 mM Protease Inhibitor Cocktail, 10 mM PMSF, 10 mM Phosphatase Inhibitor, 10 mM Na3VO4 and 100 U/ml RNase Inhibitor (Applied Biosystems). After 30 min of incubation on ice, lysates were centrifuged for 30 min at 14,000 rpm at 4° C. in a microcentrifuge. 30 μL of Protein A/G Magnetic Beads (Pierce, Thermo Scientific, Waltham, Mass.) were washed three times with Blocking Solution (0.5% BSA dissolved in DPBS+/+) and incubated for 1 h at 4° C. with 5 μg of anti-Ago2 mouse monoclonal IgG1κ or with isotype IgG1κ control antibodies (Millipore). The immunocomplexes were washed three times with Blocking Solution. […]

GDF15 [4] = assay: ELISA of secreted mature GDF15 in LN-229 culture medium; settings: LN-229, 48 h following treatment
Protocol: ELISA Assay: Mature GDF15 was detected in the cell culture medium using the GDF15 Quantikine ELISA kit from R&D Systems (Minneapolis, Minn.), according to the manufacturer's instructions. Sample absorbance was measured at 450 nm using a Bio-Rad Benchmark Plus microplate reader.

p63RhoGEF 3′UTR = assay: Dual luciferase assay, psiCHECK2/p63RhoGEF 3′UTR in LN-229 cells; settings: co-transfected with miR-3189-3p mimic
Description: (§4) Cloning for microRNA Functional Analysis: The genomic sequence corresponding to the 3′UTR of p63RhoGEF was PCR amplified from LN-229 cells. This PCR product was ligated into the multiple cloning sites downstream of the Renilla luciferase reporter gene in the psiCHECK-2 vector (Promega, Madison, Wis.). This vector also contains a firefly luciferase reporter sequence, which allows for normalization of transfection efficiency. The primers used were: forward, 5′-[…] (SEQ ID NO: 7), containing the XhoI restriction site (underlined) and reverse, 5′-[…] (SEQ ID NO: 8), containing the NotI restriction site (underlined). The genomic sequence corresponding to the 3′UTR of SF3B2 was also cloned into the psiCHECK-2 vector. The primers used were: forward, 5′-[…] (SEQ ID NO: 9), containing the XhoI restriction site (underlined) and reverse, 5′-[…] (SEQ ID NO: 10) containing the NotI restriction site (underlined).
(§5) The oligonucleotides for the mutagenesis of p63RhoGEF sites were as follows: site 1 forward, 5′-[…] (SEQ ID NO: 11), site 2 forward, 5′-[…] (SEQ ID NO: 12), and site 3 forward, 5′-[…] (SEQ ID NO: 13). […]
(§6) After 24 h, cells were harvested and lysates were assayed for luciferase activity with the Dual-Luciferase Reporter Assay System (Promega) using a Synergy 2 microplate reader (BioTek Instruments, Inc., Winooski, Vt.). […]

LN-229 cells = assay: Rescue from fenofibrate-induced cell death; settings: LN-229 cells treated with fenofibrate
p63RhoGEF mRNA = assay: qRT-PCR of p63RhoGEF mRNA in transfected LN-229 and U87MG cells; settings: co-expressed with miR-3189-3p
Protocol: as §1

SF3B2 3′UTR = assay: Dual luciferase assay, psiCHECK2/SF3B2 3′UTR in LN-229 cells; settings: co-transfected with miR-3189-3p mimic
Description: as §4, §5, §6

SF3B2 mRNA = assay: qRT-PCR of SF3B2 mRNA in transfected LN-229 and U87MG cells; settings: co-expressed with miR-3189-3p
Protocol: as §1

LN-229 and U87MG cells = assay: Cell proliferation assay (MTS)
Protocol: For transfection experiments, cells were seeded at a density of 4×10^5 cells/60 mm dish or 2.5×10^4 cells/well in 12-well plates, and transfected using Lipofectamine 2000 (Life Technologies, Grand Island, N.Y.) per manufacturer's instructions. SF3B2 and p63RhoGEF siRNAs and controls were purchased from Santa Cruz (Santa Cruz, Calif.), and were used at the final concentration of 10 nM. Human PPARα siRNA was the ON-TARGET plus SMART pool from Thermo Scientific Dharmacon (Lafayette, Colo.), and it was used at the final concentration of 100 nM. The PPARα […] WY146,43 was from Cayman Chemical (St. Louis, Mo.). For the transient transfection experiments, cells were seeded at a density of 4×10^5 cells/60 mm dish or 2.5×10^4 cells/well in 12-well plates, and transfected using Lipofectamine 2000 reagent (Life Technologies) per manufacturer's instructions.
At 72 h after transfection, cells were incubated with medium containing 3-(4,5-dimethylthiazol-2-yl)-5-(3-carboxymethoxyphenyl)-2-(4-sulfophenyl)-2H-tetrazolium (MTS) reagent (Promega) diluted according to manufacturer's instructions. Cells were then incubated at 37° C. for 30-60 min and absorbance was measured at a wavelength of 490 nm using a Bio-Rad Benchmark Plus microplate reader.

E2F-1 = assay: Western blot of E2F-1 protein in LN-229 cells; settings: co-transfected with miR-3189-3p
Protocol: as §3

[5] = 48 h after treatment/transfection, with fenofibrate

Cc1cccc(Nc2cc(Cl)nc(SCC(=O)O)n2)c1C [WY146,43]
impact on GDF15 levels triggered by fenofibrate (GDF15 mRNA [1]; [5]): no significant impact
impact on miR-3189-3p levels triggered by fenofibrate (miR-3189-3p; [5]): no significant impact

COc1cccc2c1C(=O)c1c(O)c3c(c(O)c1C2=O)C[C@@](O)(C(=O)CO)C[C@@H]3O[C@H]1C[C@H](N)[C@H](O)[C@H](C)O1 [doxorubicin]
miR-3189-3p relative expression compared to untreated cells (miR-3189-3p): only in fenofibrate treated cells

CC(C)OC(=O)C(C)(C)Oc1ccc(C(=O)c2ccc(Cl)cc2)cc1 [fenofibrate, propan-2-yl 2-{4-[(4-chlorophenyl)carbonyl]phenoxy}-2-methylpropanoate]
expression of miR-3189-5p (miR-3189-5p): did not change
up-regulation of GDF15 gene expression (GDF15 mRNA [1]; 50 μM, 24 and 48 h time points, LN-229): 60 fold
GDF15 mRNA up-regulation relative to untreated cells (GDF15 mRNA [1]; LN-229, 48 h, comparison with doxorubicin and paclitaxel (FIG. 6E)): more than 60 folds
GDF15 protein content (GDF15 [2]): large increase
up-regulation of GDF15 gene expression (GDF15 mRNA [3]): 35 fold
overexpression of miR-3189-3p linked to Ago2 immunocomplexes compared to untreated cells (Ago2 immunocomplexes): ~35 fold
miR-3189-3p relative expression compared to untreated cells (miR-3189-3p): 4.8 fold
secreted GDF15 (GDF15 [4]): significant levels

CC(=O)O[C@H]1C(=O)[C@@]2(C)[C@H]([C@H](OC(=O)c3ccccc3)[C@]3(O)C[C@H](OC(=O)[C@H](O)[C@@H](NC(=O)c4ccccc4)c4ccccc4)C(C)=C1C3(C)C)[C@]1(OC(C)=O)CO[C@@H]1C[C@@H]2O [paclitaxel]
miR-3189-3p relative expression compared to untreated cells (miR-3189-3p): only in fenofibrate treated cells

anti-miR-3189-3p: miR-3189-3p mirVana miRNA inhibitor (SEQ ID NO: 22) purchased from Life Technologies (UGCCCCAUCUGUGCCCUGGGUAGGA; listed as RNA, chemistry not given here)
effect on miR-3189-3p inhibition of p63RhoGEF 3′UTR reporter (p63RhoGEF 3′UTR): efficiently reverted
rescue from fenofibrate-induced cell death (LN-229 cells): did not rescue
effect on miR-3189-3p downregulation of p63RhoGEF transcript (p63RhoGEF mRNA): counteracted
effect on miR-3189-3p inhibition of SF3B2 3′UTR reporter (SF3B2 3′UTR): almost completely alleviated
effect on miR-3189-3p downregulation of SF3B2 transcript (SF3B2 mRNA): counteracted
changes in proliferation and cell cycle on co-transfection with miR-3189-3p (LN-229 and U87MG cells; co-transfected with miR-3189-3p): No significant changes
effect on miR-3189-3p down-regulation of E2F-1 (E2F-1): reversed

miR-3189-5p: mature microRNA of 25 nucleotides from the miR-3189 stem-loop (SEQ ID NO: 21) (GUUGCCCCAUCUGUGCCCUGGGUAGGA; listed as RNA, chemistry not fully specified)
changes in cell morphology, cell proliferation and migration (LN-229 and U87MG cells; transfection of LN-229 and U87MG cells): did not elicit changes in cell morphology, nor inhibited cell proliferation and migration
